Holding throughout (format): cell-based, human
In one assay the test system is HIF-1α. Put plainly: Immunoblotting of HIF-1α protein in hypoxic Hep3B cells. The conditions noted are these: hypoxia (1% O2) 18 hours, immunoblot.
In the next assay the test system is HIF-2α. As to the kind of experiment: Immunoblotting of HIF-2α protein in hypoxic Hep3B cells. The conditions noted are these: for inhibition of HIF-2α: hypoxia (1% O2) 18 hours, immunoblot. The procedure: Hep3B hepatoma cells are cultured in α-modified Eagle's medium supplemented with 10% […] fetal bovine serum, 100 units/ml penicillin, and 100 μg/ml streptomycin in a humidified atmosphere containing 5% CO2 at 37° C. Oxygen tension in the incubator is held at either 140 mm Hg (20% O2, v/v, normoxia) or 7 mm Hg (1% O2, v/v, hypoxia). After 24 hour stabilization under normoxic conditions, cells are incubated under normoxic or hypoxic conditions for 18 hours in the presence or in the absence of compounds of the invention. For the immunoblotting of HIF-1α or HIF-2α in cultured cells, 20 μg of extracted proteins are separated on 6.5% SDS/polyacrylamide gels, and then transferred to an Immobilon-P membrane (Millipore). Immobilized proteins are incubated overnight at 4° C. with rat anti-HIF-1α(Chun et al., J Cell Sci 2001 114:4051-4061) or anti-HIF-2α(Novus Biologicals, Littleton, Colo.), diluted 1:5000 in 5% nonfat milk in TBS/0.1% Tween-20 (TTBS). Horseradish peroxidase-conjugated anti-rat antiserum is used as a secondary antibody and the complexes are visualized using an Enhanced Chemiluminescence Plus Kit (Amersham Pharmacia Biotec).
To induce HIF-1α and HIF-2α proteins, Hep3B cells were incubated in a hypoxic chamber (1% oxygen tension) for 16 hours. […] The amounts of HIF proteins were measured by Western blotting method.

Another assay deals with HIF. As to the kind of experiment: HIF activity assay (EPO enhancer luciferase reporter). The conditions noted are these: Hep3B, 16 h at 1% O2 (FIGS. 4a-4i). As to the method: The synthetic DNA coding the HIF-binding enhancer region of the EPO gene, 5-[…] ATCT-3 (SEQ. ID NO. 1), was inserted into the pGL3 promoter plasmid (Promega). To assay the HIF activity, Hep3B cells were cotransfected with the luciferase reporter gene and the plasmid cytomegalovirus-β-gal, using the calcium phosphate method. Transfected cells were split into nine aliquots and incubated for 42 h. After stabilizing, the cells were incubated for 16 h at 20% or 1% O2. They were then lysed and assayed for luciferase activity using a Biocounter M1500 luminometer (Lumac). β-gal assays were performed for normalization of transfection.
For orientation: A reporter such as luciferase makes a cellular process visible.

Assay [1] has as its system Hep3B cells. As to the kind of experiment: TUNEL assay of apoptosis. As to the method: (§1) The activity of caspase-3 was represented in nmoles of p-nitroaniline released per min and per ml of cellular extract. Bars represent the mean of three separate experiments with the upper 95% confidence interval. *: p<0.05 vs. the control. […] PARP cleavage was analysed by immunoblotting with a mouse anti-PARP antibody. Proteins were visualized by Enhanced Chemiluminescence Plus. The lane C is the control. […] PARP is essential for DNA-replication in the S-phase and its absence leads to apoptosis.
(§2) Referring to FIG. 3a, the caspase-3 activity increased over time to about 5 times the activity in the control after 72 h. […] Inactivation of PARP leads to cell apoptosis. PARP protein was analyzed using Western blotting with anti-PARP antibody (BIOMOL Research Laboratories, Inc), diluted 1:5000. […] For quantification of apoptosis at single cell level, based on labeling of DNA strand breaks, Terminal deoxynucleotidyl Transferase-mediated dUTP Nick End Labeling (TUNEL) assay was performed according to the manufacturer's protocol (In Situ Cell Death Detection Kit; TMR Red; Roche Diagnostics GmbH, Mannheim, Germany). It is a method for detecting the 3′—OH ends of DNA exposed during the internucleosomal cleavage that occurs during apoptosis. Incorporation of fluorescein-dUTP allows detection by FACS. […]

A further assay has as its system Hep3B hepatoma cells. As to the kind of experiment: Cell cycle analysis by FACS (propidium iodide DNA content). The procedure:
FIG. 1a is the FACS data to analyze the cell distribution based on DNA content. […] The cell cycle analysis was performed using a Becton Dickinson FACStar flow cytometer. Cells (1-2×10^6) were plated in 10 cm culture dishes at concentrations determined to yield 70-80% confluence within 24 h. Cells were treated with DMSO or YC-1 and incubated for described time. After incubation, both adherent and floating cells were harvested, washed with 3 ml PBS and resuspended with 200 μl PBS, fixed in 75% ethanol for 30 min on ice. After washing with PBS, cells were labeled with propidium iodide (0.05 mg/ml) in the presence of RNase A (0.5 mg/ml), incubated at room temperature in the dark for 30 min. DNA content was then analyzed using FACStar flow cytometer, and then excited with an argon, water-cooled laser emitting at 488 nm. Propidium iodide was detected using a 630±20 nm band pass filter.
The compounds induce cell cycle arrest as shown in Hep3B liver tumor cells. After application of 1 μM into cultures of Hep3B cells, typically in 48 hours, 28% of the cells were in the G0/G1 phases, 15% in the G2/M phases, 57% in the S phase, and a small percentage were characterized as being in the sub-G1 phase. In the control, typically 60% of the cells were in the G0/G1 phases, 16% in the G2/M phases, and […] in the S-phase.
For orientation: A flow cytometer gives signals particle by particle.

The next assay relates to PARP. As to the kind of experiment: PARP cleavage by immunoblotting. The conditions noted are these: 1, 2 μM for 90 h, Hep3B (FIG. 3b). The procedure: as §1, §2
For orientation: Immunoblotting shows a protein as a band on a membrane.

Assay [2] concerns Hep3B cells. Put plainly: Cell viability by MTT assay. As to conditions: 0.5, 1, or 2 μM for 24, 48, or 72 h (FIG. 2). The procedure:
The percentages of viable cells were measured by MTT assay. […] Bars represent the mean of three separate experiments with the upper 95% confidence interval. *: p<0.05 vs. the control.
Compounds of Formula I or II can be evaluated for efficacy using the methods described above. In addition, compounds of the invention have efficacy in a cell viability assay using human cancer cells. The cells are treated with a compound of Formula I or II (at concentrations ranging from 0.5-2 μM) and buffer. Cellular viability is measured at 24, 48, and 72 hours. Treatment with the compound results in a notable decrease in cell viability.
The percentage of viable cells was measured by MTT assay. Cells were plated in 12 well plates. […] Resulting insoluble formazan was dissolved with 0.04 N HCl in isopropanol. Absorbance of purple color of formazan was measured at 570 nm with a spectrophotometer.

Structures are written as SMILES.

Protocol for HIF-1α: Hep3B hepatoma cells are cultured in α-modified Eagle's medium supplemented with 10% heat-activated fetal bovine serum, 100 units/ml penicillin, and 100 μg/ml streptomycin in a humidified atmosphere containing 5% CO2 at 37° C. Oxygen tension in the incubator is held at either 140 mm Hg (20% O2, v/v, normoxia) or 7 mm Hg (1% O2, v/v, hypoxia). After 24 hour stabilization under normoxic conditions, cells are incubated under normoxic or hypoxic conditions for 18 hours in the presence or in the absence of compounds of the invention. For the immunoblotting of HIF-1α or HIF-2α in cultured cells, 20 μg of extracted proteins are separated on 6.5% SDS/polyacrylamide gels, and then transferred to an Immobilon-P membrane (Millipore). Immobilized proteins are incubated overnight at 4° C. with rat anti-HIF-1α(Chun et al., J Cell Sci 2001 114:4051-4061) or anti-HIF-2α(Novus Biologicals, Littleton, Colo.), diluted 1:5000 in 5% nonfat milk in TBS/0.1% Tween-20 (TTBS). Horseradish peroxidase-conjugated anti-rat antiserum is used as a secondary antibody and the complexes are visualized using an Enhanced Chemiluminescence Plus Kit (Amersham Pharmacia Biotec).

Turning to `CC(C)n1nc(-c2ccc(CO)o2)c2ccccc21` [{5-[1-(prop-2-yl)-1H-indazol-3-yl]-furan-2-yl}-methanol], the “inhibition of HIF-1α” value in the assay on HIF-1α is given as “strong inhibitors”. Further, the “inhibition of HIF-2α” value in the assay on HIF-2α is “strong inhibitors”.

Consider `OCc1ccc(-n2cnc3ccccc32)o1` [{5-[1H-benzimidazol-1-yl]-furan-2-yl}-methanol], for which the “inhibition of HIF-1α” value with HIF-1α is given as “strong inhibitors”. For the same compound, the “inhibition of HIF-2α” value in the assay on HIF-2α is reported as “strong inhibitors”.

On to `OCc1ccc(-c2nn(Cc3ccccc3)c3ccccc23)o1` [YC-1, 3-(5′-hydroxymethyl-2′-furyl)-1-benzylindazole], for which the “HIF activity (luciferase reporter)” value in the assay on HIF is reported as “effectively reduced”. Besides, the “expression of HIF-2α protein” value in the assay on HIF-2α (1% oxygen 16 hours, 0.3 to 10 μg/ml, Western blotting (FIGS. 4a-4i)) is “effectively reduced”. Further, in the assay with Hep3B cells [1] (1, 2 μM for 90 h, Hep3B (FIG. 3c)), the “percentage of TUNEL-positive cells” value is given as “increased dose-dependently”. In the assay on Hep3B cells [1] (caspase-3 inhibitor Ac-DEVD-CHO pre-treated 1 h before YC-1), the “percentage of TUNEL-positive cells with caspase-3 inhibitor” value is “decreased significantly”. Also, the “percentage of cells in the S-phase over time (FIG. 1)” value with Hep3B hepatoma cells (Hep3B cells, time after application) is on record as “steadily increased with time after application”. Besides, in the assay on Hep3B hepatoma cells (Hep3B cultures), the “dose dependence of the cell cycle (S-phase) arrest” value is recorded as “dose dependent up to 5 μM”. In addition, in the assay on Hep3B hepatoma cells (Hep3B hepatoma cells), the “effect on cell cycle (FIG. 1)” value is on record as “S-phase arrest”. For the same compound, the “amount of the 89 kDa fragment of PARP” value in the assay with PARP is “increased when the YC-1 dose was doubled”. Also, the cell viability entry in the assay on Hep3B cells [2] was “decreased by YC-1, dose-dependently and time-dependently”.

These data come from patent US7226941B2, “Compound for treating angiogenesis” (HIF Bio, Inc., priority 2003, dated 2007).
